The values that follow come from US20250281460A1, “PEGYLATED BILIRUBIN FOR THE TREATMENT OF […], OBESITY, FATTY LIVER DISEASE, CARDIOVASCULAR DISEASES AND TYPE II DIABETES” (The University of Toledo, priority 2019, published 2025).

Assay [1] deals with BAT PPARα CRISPR KO cells. Put plainly: Seahorse analysis in BAT PPARα CRISPR KO cells. Type of assay: cell-based, mouse. To be noted: both KO clones, 24 hours. The text has this:
To further delineate the actions of bilirubin on BAT, CRISPR technology was developed to knockout (KO) PPARα and establish two null clone lines. […]. The function of the ligands was lost in both clones for the BAT PPARα CRISPR KO cells.
CRISPR-Technology was employed in BAT as previously described to excise part of Exon 3 and Exon 4 of the PPARα gene to create a PPARα Knockout BAT cell line. Two sgRNAs with high efficacy and low off-target scores were identified on Exon 3 and 4 of the mouse PPARα gene using Benchling online software. The two Cas9 targets were separated by 9,465 bases. All of the off-targets to our PPARα sgRNA had 4 mismatches, of which at least 1-2 were within the seed region (up to 12 bases proximal to the protospacer adjacent motif (PAM) site) which reduces the likelihood of Cas9 off-target effects. The multiplex sgRNAs were generated using the PrecisionX Multiplex gRNA Cloning Kit according to manufacturer instructions. […] After 36 h of transfection, cells with the top 10% level of fluorescence were single-sorted into 96-well plates by fluorescent activated cell sorting. […]
Cellular respiration was quantified using the Seahorse Extracellular Flux Analyzer XF-96 (Agilent Technologies, Cedar Creek, TX). […] The oxygen consumption rate (OCR) and extracellular acidification rate (ECAR) were used to quantify the cellular energy phenotype of the cells. […]

The test system of assay [2] is Adrb3 promoter. The assay can be described thus: Adrb3 promoter luciferase reporter in Cos7 cells with or without PPARα. The assay is classed as cell-based, murine. As to the method: To determine if biliverdin/bilirubin is increasing Adrb3 in a PPARa-dependent manner, the proximal (−2816 to +118) and enhancer (−4770 to −4430) regions of the murine promoter in the pGL4.10 construct were cloned. The constructs were transfected with or without PPARα in receptorless Cos7 cells. The proximal promoter had no response with or without PPARα expressed in Cos7 cells (FIGS. 3D-3E). […] Therefore, various areas within the Adrb3 promoter were analyzed using the information from the luciferase promoter data and with analysis of several suspected PPREs in the promoter region.
An expression vector for Flag-Tagged PPARα was constructed as previously described. The cells were transfected with RXR-SG5 and either WT-Flag PPARα or with a Flag-Tagged PPARα plasmid with one of the following mutations: M330G, A333G, or T283G, in order to determine if binding of bilirubin at previously predicted positions would alter activity. Cells were also transfected with RXR-SG5 to enhance PPAR activity and the PPAR minimal reporter promoter plasmid (3Tk-Luc), whose activity was measured by luciferase, and pRL-CMV Renilla reporter for normalization to transfection efficiency. Transient transfection was achieved using GeneFect (Alkali Scientific, Inc.) during a 24-hour span.

Assay [3] relates to 3T3-Vector cells. The assay can be described thus: SeaHorse mitochondrial respiration in 3T3-Vector cells. The assay is classed as cell-based, mouse. The following applies: lentiviral empty vector control cells. The source says: To investigate the specific role of bilirubin on PPARα or PPARγ as well as mitochondrial function and gene regulation, 3T3-LI cells that overexpressed each receptor (3T3-PPARα or 3T3-PPARγ2) were generated via lentivirus (FIGS. 2A-2B). […] The 3T3-Vector cells had no responses to biliverdin in FIGS. 2A-2B.
(§1) Cellular respiration was quantified using the Seahorse Extracellular Flux Analyzer XF-96 (Agilent Technologies, Cedar Creek, TX). The Seahorse XF Cell Mito Stress Test Kit (Agilent Technologies, Cat #103015-100) was used for analysis of cellular respiration. BAT or 3T3-L1 cells were seeded on a XF96 cell culture microplate (Agilent 101085-004) at 20,000 cells per well. Cells were then differentiated as previously described for 9 days. […] The oxygen consumption rate (OCR) and extracellular acidification rate (ECAR) were used to quantify the cellular energy phenotype of the cells. After treatment, cells were washed twice with Seahorse Bioscience Assay Media (XF Base media with 25 mM Glucose, 2 mM […], and 1 mM Sodium Pyruvate) then incubated with the buffer for 1 hour in a non-CO2 incubator. The Seahorse Cartridge ports were loaded with […] of assay media with […] FCCP, 10 μM Oligomycin, 5 μM Rotenone/Antimycin A in different ports an hour before assay. […] The raw data and graphs were supplied as an Excel File or Graphpad Prizm file.

The subject of assay [4] is BAT cells. The assay can be described thus: SeaHorse analysis in murine BAT cell line (wild-type). The assay is classed as cell-based.
Assay [5] concerns 3T3-L1-WAT adipocytes. The assay can be described thus: SeaHorse oxygen consumption rate in fully differentiated 3T3-L1-WAT adipocytes. The following applies: 50 μM biliverdin, 50 μM WY 14,463, 10 μM rosiglitazone. Type of assay: cell-based, mouse. As to the method:
To compare the effects of bilirubin on the activation of PPARα or PPARγ on mitochondrial function, a SeaHorse XFe96 Analyzer was used to measure oxygen consumption rate (OCR) in fully differentiated 3T3-L1-WAT adipocytes treated with 50 μM biliverdin, 50 μM WY 14,463 (PPARα agonist), or 10 μM rosiglitazone (PPARγ-agonist). […]. Rosiglitazone, but not biliverdin or WY 14,643, enhanced the coupling efficiency. None of the ligands affected non-mitochondrial respiration, basal respiration, or proton leak.
as §1

Assay [6] has as its system BAT cells. The assay can be described thus: Real-time PCR in differentiated BAT cells. The assay is classed as cell-based, murine. The following applies: 50 μM biliverdin, 50 μM WY14,463, 10 μM rosiglitazone, 24 hrs. As for the experimental part: Total RNA was extracted from mouse tissues using the miRNeasy Mini Kit (Qiagen). Total RNA was read on a NanoDrop 2000 spectrophotometer (Thermo Fisher Scientific, Wilmington, DE) and cDNA was synthesized using High Capacity cDNA Reverse Transcription Kit (Applied Biosystems). PCR amplification of the cDNA was performed by quantitative real-time PCR using TrueAmp SYBR Green qPCR SuperMix (Advance Bioscience). The thermocycling protocol consisted of 3 min at 95° C., 48 cycles of 15 sec at 95° C., 30 sec at 60° C., and based on primer size 0 to 30 sec at 72° C. and finished with a melting curve ranging from 60-95° C. to allow distinction of specific products. Normalization was performed in separate reactions with primers to 36B4.

Each structure is given as a SMILES string. “Also recorded” adds a separate entry of the source.

For `C=CC1=C(C)/C(=C/C2=NC(=C\c3[nH]c(/C=C4\NC(=O)C(C)=C4C=C)c(C)c3CCC(=O)O)/C(CCC(=O)O)=C2C)NC1=O` [biliverdin], the “function of the ligands on mitochondrial function (OCR)” value in assay [1] is recorded as “lost”. The “luciferase activity, enhancer region with mutated PPREs” value in assay [2] (mutations in each PPRE separately) is recorded as “no induction”. Also, the “luciferase activity, enhancer (−4770 to −4430) region” value in assay [2] (with PPARα overexpression) was “significantly higher”. Moreover, in assay [2] (with or without PPARα expressed in Cos7 cells), the “luciferase activity, proximal (−2816 to +118) promoter” value is reported as “no response”. The “responses (mitochondrial respiration)” value in assay [3] is on record as “no responses”. Moreover, in assay [4] (BAT cells), the mitochondrial function result was “increasing” and the proton leak result is reported as “stimulated”. In assay [4] (WT BAT cells, 24 hours), the ATP production result is on record as “increased; also recorded: stimulated”, the “basal respiration (OCR)” value was “increased” and the “maximum respiration (OCR)” value was “increased; also recorded: significantly higher”. In addition, in assay [5], the ATP production entry was “significantly elevated” and the “mitochondrial OCR for maximum respiration” value is reported as “significantly increased”. Moreover, in assay [6], the “Adrb3 mRNA” value was “significant increase; also recorded: only significantly higher” and the “Ucp1 mRNA” value is listed as “significant increase”.
